Assay results: US20140024683A1, “CHLORIDE CHANNEL AND CHLORIDE TRANSPORTER MODULATORS FOR THERAPY IN SMOOTH MUSCLE DISEASES” (priority 2011, published 2014)
Where “and” joins values, the source holds several entries; their conditions need not be identical. Equal entries are not always repeated. Where two headings read alike, the source gives them in different places.

Assays:
[1] = tested on: human airway smooth muscle cells; format: cell-based
Description: This buffer was exchanged at 100 μl/well just before starting the measurement of fluorescence. […] In separate experiments the effect of extracellular chloride concentrations on SOCE was measured by the predepletion of extracellular calcium in low or high chloride buffer (55 mM versus 110 mM NaCl, osmotically balanced with Na gluconate) in the presence of thapsigargin to deplete intracellular calcium stores. Calcium induced fluorescence changes were measured with the reintroduction of 2 mM extracellular CaCl2.

[2] = tested on: human airway smooth muscle cells; assay: FLIPR membrane potentiometric dye assay (Example 21); format: cell-based
Description: Immortalized airway smooth muscle cell lines modified to stably express human telomerase reverse transcriptase were a kind gift from Dr. William Gerthoffer (University of Southern Alabama, Mobile, Ala.) prepared as described previously (Gosens et al., 2006) and grown in Dulbecco's Modified Eagle's Medium/F12 media (GIBCO, Grand Island, N.Y.), with 10% FBS and antibiotics.
Immortalized human airway smooth muscle cells were cultured on black-walled 96 well plates to 100% confluence, and were washed four times with warmed (37° C.) assay buffer of the following composition (in mM): NaCl 140, KCl 4.7, CaCl2 2.5, MgCl2 1.2, HEPES 11, D-glucose 10. A stock solution (100% dye) of FLIPR blue dye was prepared by reconstitution of 1 vial (125 mg) with 100 ml assay buffer. A 50% working stock was prepared by further diluting the reconstituted blue dye 1:1 with assay buffer and was used to load cells (90 μl/well) over 45 min at 37° C. in a humidified cell culture incubator (95% air/5% CO2). All reagents were dissolved in assay buffer. Fluorescence was measured with a Flex Station 3 (Molecular Devices) using an excitation wavelength of 530 nm, emission wavelength of 565 nm and a cutoff filter of 550 nm. Baseline fluorescence was measured every 2 seconds for 1 minute then for 2 minutes after injection of vehicle or compound of interest as indicated (using the Flexstation's 3 integrated injection capabilities).
Human airway smooth muscle cells were incubated with FLIPR membrane potentiometric dye to assess if the chloride channel blockers changed membrane potential at the cellular level. FLIPR fluorescence will increase with depolarization, and decrease with hyperpolarization. […] Therefore, chloride channel blockade, but not NKCC blockade, hyperpolarized human airway smooth muscle cells.

[3] = tested on: human airway smooth muscle cells; assay: Whole cell current clamp recording of membrane potential; format: cell-based
Description: Induced electrophysiological changes in membrane potential and current were measured using traditional whole cell patch clamp methods. Immortalized human airway smooth muscle cells were grown to confluence on collagen-treated T25 flasks. Collagenase type IV in SmBM2 medium (Lonza, Walkersville, Md.) was used to release cells adherent to the collagen matrix in the flask. Medium with cells in suspension was then harvested in a 10-ml conical tube and centrifuged at 300×g. Supernatant was removed, and the pellet was resuspended in SmBM2 medium and transferred into collagen-treated glass bottom 1-cm Petri dishes at about 10% confluence. Each dish was then incubated at 37° C. and 5% CO2 for 1-4 hours for reattachment of cells to glass-bottom Petri dishes.
Glass-bottom dishes served as a disposable recording chamber. ALA VM-8, an 8-chamber pressure-driven drug application system, was used in a still bath of extracellular salt solution. Whole-cell intracellular voltage recordings under current clamp conditions were performed with a 2-kHz Bessel filter, recording at 10 kHz using an Axopatch 200b amplifier (Axon Instruments, Foster City, Calif., USA). Electrodes were pulled using a P-97 micropipette puller from 1.5-mm OD borosilicate capillary glass (Sutter Instruments, Novato, Calif., USA). Glass electrode resistances ranged from 5 to 10 MO with intracellular solution. Whole-cell intracellular current recordings under voltage-clamp conditions were performed with a 2-kHz Bessel filter, recording at 10 kHz using an Axopatch 200b amplifier. For current measurements (FIG. 11) intracellular solutions consisted of (in mM) 140 TEA-Cl, 5 MgATP, 5 EGTA, 1 MgCl2, 10 HEPES, and 5 CaCl2 (pH 7.2). Extracellular solution consisted of (in mM) 134 NaCl, 1.4 KCl, 10 HEPES, 1 MgCl2, 1.8 CaCl2, and 10 glucose (pH 7.4). This induced the classic spontaneously transient inward currents (STICs) and spontaneously transient outward currents (STOCs) well described in this cell type. STOCs are believed to represent activation of calcium activated potassium (KCa) channels while STICs are believed to represent activation of CaCCs. TEA-Cl was included in the buffer to enhance STICs which were then recorded during the addition of 100 μM niflumic acid. When recording TEA- and niflumic acid-induced responses on membrane potential (ΔmV), the intracellular solutions contained (in mM) 140 KCl, 5 MgATP, 5 EGTA, 1 MgCl2, 10 HEPES, and 5 CaCl2 (pH 7.2), and the extracellular solutions consisted of (in mM) 134 NaCl, 5 MgATP, 5 EGTA, 1 MgCl2, 10 HEPES, and 5 CaCl2 (pH 7.2). All recordings were analyzed on Clampfit 8.0 software (Molecular Devices).

[4] = tested on: human airway smooth muscle; assay: Relaxation of acetylcholine contraction in human airway smooth muscle strips; details: 100 μM alone; EC50 acetylcholine
Description: Studies using de-identified human tissue were reviewed by the Columbia University Institutional Review Board and deemed not human subjects research. Tissues were obtained from healthy, normal organ donor discarded surgical waste subsequent to lung transplant surgery. Tissues were collected after transplant and placed in DMEM media (GIBCO) and bubbled overnight in 5% carbon dioxide and 95% oxygen at 4° C. The following morning, the smooth muscle tissue was carefully dissected under a dissecting microscope and the epithelium removed. The strips were anchored in the organ bath as described above using KH buffer of the same composition. The strips were allowed to equilibrate for 1 hour with buffer exchanges every 15 minutes and were treated with 10^−6 M tetrodotoxin, 10^−5 M pyrilamine, and 10^−5
M MK571. Strips were contracted with an EC50 dose of acetylcholine (Ach)
This experiment was then repeated with human airway smooth muscle to investigate clinical relevance as a model of bronchospasm in humans.

[5] = tested on: guinea pig tracheal rings; assay: Relaxation of potassium gluconate contraction in guinea pig tracheal rings; details: 100 μM; 80 mM potassium gluconate
Description: (§1) Animal protocols were approved by the Columbia University Animal Care and Use Committee. Male Hartley guinea pigs weighing approximately 400 g were anesthetized with intraperitoneal injection of sodium pentobarbital (100 mg/kg). Trachea were removed and transferred to ice cold Krebs-Henseleit (KH) buffer of the following composition (in mM): NaCl 118, KCl 5.6, CaCl2 0.5, MgSO4 0.24, NaH2PO4 1.3, NaHCO3 25, glucose 5.6, pH 7.4. Epithelial-denuded tracheal rings were prepared using a dissecting microscope. Epithelium was removed by gently passing cotton fibers through the lumen of the tracheal rings. The rings were suspended in 4 mL-water jacketed organ baths (37° C.: Radnoti Glass Technology, Monrovia, Calif.) and connected to a Grass FT03 force transducer (Grass Telefactor, West Warwick, R.I.) using silk sutures. The transducers were coupled to the computer with BioPac hardware and data was collected using Acqknowledge 7.3.3 software (BioPac Systems, Goleta, Calif.). KH buffer was bubbled with a gas mixture of 95% oxygen and 5% carbon dioxide and buffer was exchanged every 15 minutes for 1 hour during equilibration of tracheal rings at 1 g resting tension. […].
Many chloride channel blockers are known to also stimulate potassium channels (Greenwood et al., 2007). Thus, we performed additional studies in the presence of a large extracellular concentration of potassium to ensure that our findings of compound 1 or 13 inhibiting a TEA-induced depolarizing contraction were not due to these compounds opening a potassium channel.

[6] = tested on: Ca^2+-activated chloride channel; assay: Patch-clamp analysis of spontaneous transient inward currents (STICs)
[7] = tested on: guinea pig tracheal rings; assay: Relaxation of the maintenance phase of a pre-established acetylcholine contraction, guinea pig tracheal rings; details: 100 μM alone; pre-contracted with EC50 acetylcholine
Description: as §1
Chloride channel blockers were then tested against the plateau phase of an established acetylcholine contraction. […]

[8] = tested on: guinea pig tracheal rings; assay: Relaxation of TEA contraction in guinea pig tracheal rings (Example 16, library screen); details: 10 mM TEA
Description: as §1

[9] = tested on: guinea pig tracheal rings; assay: Potentiation of isoproterenol relaxation of acetylcholine contraction, guinea pig tracheal rings; details: 50 μM compound 13
Description: as §1
Therefore, we tested whether the chloride channel blockers or modulation of chloride flux could be used in combination with β-agonists to potentiate their effects. […]. Therefore, a combination of treatment with compound 13 and bumetanide potentiated the relaxation effect of isoproterenol.

[10] = tested on: guinea pig tracheal rings; assay: Ex vivo airway smooth muscle force, prevention or relaxation of a contraction (Example 5); details: solo therapy; vs vehicle
Description: The chloride channel blocker NPPB and the chloride transporter blocker bumetanide were evaluated for their ability to prevent an initial contraction (n=5) (FIG. 23A) or to relax an existing contraction (n=6) (FIG. 23B).
As a proof of concept for chloride channel blockade in general, another chloride channel blocker, 5-nitro-2-(3-phenylpropylamino)-benzoic acid (NPPB) was used in an ex vivo guinea pig airway smooth muscle model.

RhoA = details: 10 mM TEA-acetate, 2 minutes
Description: FIG. 8 is a bar graph showing RhoA activation in human airway smooth muscle cells.
Measurement of activated rhoA in cultured human airway smooth muscle cells were conducted as follows. […] Reaction was stopped by solubilizing cells in buffer. Following clearance of non-solubilized cell material, the solubilized cells were reacted with Rhotekin bound to beads, which isolated activated RhoA from total RhoA. Fractions were then analyzed on a commercially available ELISA plate that quantitates activated versus total RhoA (Cytoskeleton, Inc.)

rat lung slices = assay: Airway lumen area in peripheral small airways of rat lung slices; details: contractile agonists
Description: The measurement of airway contraction of a luminal area of small lung airways using the ex vivo rat lung slice method was performed as described (Perez-Zoghbi et al., 2007). The trachea was cannulated with an intravenous catheter, and after the chest cavity was opened, the collapsed lungs were reinflated with 1.3±0.1 ml of 2% agarose (low-gelling temperature) in Sigma-Hanks' Balanced Salt solution (sHBSS), followed by the injection of 0.2±0.1 of air to flush the agarose-sHBSS out of the airways and into the distal alveolar space. Subsequently, a warm (37° C.) solution of gelatin (type A, porcine skin, 300 bloom, 6% in sHBSS) was perfused through the intrapulmonary blood vessels via the pulmonary artery by injecting about 0.3 ml into the right ventricle. The warm agar and gelatin were gelled with cold sHBSS. A single lung lobe was removed and cut into serial sections of about 130 μm thick with a vibratome at about 4° C., starting at the lung periphery. Slices were maintained in DMEM (Invitrogen) at 37° C. and 10% CO2 for up to 3 days. At 37° C., the gelatin in the blood vessel lumen dissolved, leaving the blood vessel lumen empty. Lung slices were mounted in a custom-made perfusion chamber and held in place with a small sheet of nylon mesh. A second cover glass edged with silicone grease was placed over the lung slice. Perfusion of the lung slice was performed using a gravity-fed perfusion system. The volume of the chamber was about 100 μl with a perfusion rate of about 800 μl/min. […] Digital images were recorded in time lapse (30 frames/min). The area of the bronchiole and arteriole lumen was calculated, from each image, by pixel summing using custom-written software. Experiments were performed at room temperature.

[11] = 10 μM compound 13 and bradykinin, n=5
[12] = 10 μM compound 13 plus 30 μM bradykinin, n=5
[13] = compound 13 under basal conditions, n=9

## O=C([O-])[C@H](O)[C@@H](O)[C@H](O)[C@H](O)CO.[K+] [K gluconate, potassium gluconate]
[1]
  intracellular calcium (fluo4-AM fluorescence): increased calcium
[2]
  membrane potential, continuous fluorescence recording (representative tracing): depolarizes
[3]; 60-75 mM potassium (K)-gluconate
  membrane potential (current clamp, whole cell): depolarized the cell

## O=C(O)c1cc(Cl)ccc1NCc1cccc2ccccc12 [compound 13, 5-chloro-2-(1-naphthylmethylamino)benzoic acid]
[4]
  relaxation of acetylcholine contraction: 52.5%±8.1
[2]; 100 μM, n=12
  change in relative fluorescent units (membrane potential, FLIPR): −264.2+/−40 RFU
[5]
  percent of potassium gluconate-induced contraction at 30 minutes: 68.17%±4.9 and 68.2%±4.9
[6]; 10 μM compound 13 alone, n=9
  amplitude of STICs: 0.44±0.09 fold change with control normalized to 1
  frequency of STICs: 0.4±0.1 fold change with control normalized to 1
[6]; [11]
  amplitude of STICs compared to control: 46%
  frequency of STICs compared to control: 40%
[6]; [12]
  amplitude of STICs: 0.46±0.13 fold change with control normalized to 1
  frequency of STICs: 0.4±0.14 fold change with control normalized to 1
[6]; [13]
  amplitude of STICs: 44 % of control
  frequency of STICs: 40 % of control
[7]
  relaxation of established acetylcholine contraction: 60.1%±5.7
[8]; 100 μM
  percent of the TEA-induced contraction remaining at 15 minutes: 61.0±10.1%
  relaxed fraction of a TEA-induced contraction at 15 minutes after drug addition: 39.0%
[8]
  relaxation of TEA-induced contraction (screen of 20-compound chloride channel blocker library): most potently relax
[9]
  shift of the EC50 of isoproterenol: 2.2 fold

## O=C(O)c1cc([N+](=O)[O-])ccc1NCCCc1ccccc1 [NPPB, 5-nitro-2-(3-phenylpropylamino)-benzoic acid]
[5]
  percent of potassium gluconate-induced contraction at 30 minutes: 56.71%±10.6 and 56.7%±10.6
[10]
  relaxation of an existing contraction: effective in relaxing an existing contraction

## CC[N+](CC)(CC)CC.[Cl-] [TEA, tetraethylammonium chloride]
[1]; 10 mM TEA
  intracellular calcium (fluo4-AM fluorescence): does not increase intracellular Ca^2+
RhoA
  RhoA activation: activates rhoA
Rat lung slices
  percent decrease in lumen area compared to rest: significant decrease in lumen area
[3]; 10 mM TEA-Cl
  membrane potential (current clamp, whole cell): depolarized the cell
